Bridges are numbered along the chain shown (N, C = ends). Where no end group is shown, it is not given here. [ ]: non-standard residue; d: D form.

Experiment [1] relates to rat anterior pituitary cells. Briefly: ACTH secretion by anterior pituitary cell cultures in the presence of a challenge dose of ovine CRF (antagonist test). Particulars: challenge dose of ovine CRF; relative to [D-Phe12,Nle21,38]-r/hCRF(12-41). It counts as cell-based. An excerpt: A straightforward assay using rat anterior pituitary cells in monolayer culture can be carried out to determine whether a candidate peptide thereof will function as a CRF agonist and stimulate ACTH secretion by activating CRF receptors on such cells. The procedure which is used is that generally set forth in Endocrinology, 91, supra. A very similar assay is used to test for antagonistic properties, using a challenge dose of oCRF or the like.
An in vivo test measuring elevation of mean arterial blood pressure as a result of iv injection is also simply and straightforwardly performed.

For experiment [2], the system named is mammalian mean arterial blood pressure. Kind of experiment: in vivo test measuring elevation of mean arterial blood pressure as a result of iv injection. The settings on record: result in words; indicative of a Ucn antagonist. The text has this: The peptide, Ucn(11-40), having the amino acid sequence (see SEQ ID NO: 8): […] is synthesized in the manner described in Example I. To evaluate the biological activity of a candidate peptide as a Ucn antagonist (which will be indicative of its effective binding to CRF receptors), the previously mentioned assay from Endocrinology, 91, supra, is run in the presence of a challenge dose of ovine CRF. […] An in vivo test measuring elevation of mean arterial blood pressure as a result of iv injection is also simply and straightforwardly performed.

For experiment [3], the target named is CRF receptors on anterior pituitary cells in culture. Kind of experiment: cell-based or functional assay.

As for “H-D-Tyr-His-Leu-Leu-Arg-Thr-Leu-Leu-Glu-Leu-Ala-Arg-Thr-Gln-Ser-Gln-Arg-Glu-Glu-Ala-Glu-Lys-Asn-Arg-Ile-Ile-Phe-Asp-Ser-Val-NH2 (H-[dY]HLLRTLLELARTQSQREEAEKNRIIFDSV-NH2; lactam 19-22; SMILES CC[C@H](C)[C@H](NC(=O)[C@H](CCCNC(=N)N)NC(=O)[C@H](CC(N)=O)NC(=O)[C@@H]1CCCCNC(=O)CC[C@H](NC(=O)[C@H](CCC(=O)O)NC(=O)[C@H](CCCNC(=N)N)NC(=O)[C@H](CCC(N)=O)NC(=O)[C@H](CO)NC(=O)[C@H](CCC(N)=O)NC(=O)[C@@H](NC(=O)[C@H](CCCNC(=N)N)NC(=O)[C@H](C)NC(=O)[C@H](CC(C)C)NC(=O)[C@H](CCC(=O)O)NC(=O)[C@H](CC(C)C)NC(=O)[C@H](CC(C)C)NC(=O)[C@@H](NC(=O)[C@H](CCCNC(=N)N)NC(=O)[C@H](CC(C)C)NC(=O)[C@H](CC(C)C)NC(=O)[C@H](Cc2c[nH]cn2)NC(=O)[C@H](N)Cc2ccc(O)cc2)[C@@H](C)O)[C@@H](C)O)C(=O)N[C@@H](C)C(=O)N[C@@H](CCC(=O)O)C(=O)N1)C(=O)N[C@H](C(=O)N[C@@H](Cc1ccccc1)C(=O)N[C@@H](CC(=O)O)C(=O)N[C@@H](CO)C(=O)N[C@H](C(N)=O)C(C)C)[C@@H](C)CC)”, the “inhibition of ACTH secretion in vitro, times as effective as the Standard Antagonist (confidence limits)” value (“inhibition … (confidence limits)” for short) in experiment [1] is on record as 4.01 (2.32-7.05). Also, the “vasoconstrictive activity causing elevation of mean arterial blood pressure” value in experiment [2] is listed as “significant mammalian vasoconstrictive activity”.

For the molecule “H-D-Phe-His-Leu-Leu-Arg-Thr-Leu-Leu-Glu-Leu-Ala-Arg-Thr-Gln-Ser-Gln-Arg-Glu-Arg-Ala-Glu-Gln-Asn-Arg-Ile-Ile-Phe-Asp-Ser-Val-NH2 (H-[dF]HLLRTLLELARTQSQRERAEQNRIIFDSV-NH2; SMILES CC[C@H](C)[C@H](NC(=O)[C@H](CCCNC(=N)N)NC(=O)[C@H](CC(N)=O)NC(=O)[C@H](CCC(N)=O)NC(=O)[C@H](CCC(=O)O)NC(=O)[C@H](C)NC(=O)[C@H](CCCNC(=N)N)NC(=O)[C@H](CCC(=O)O)NC(=O)[C@H](CCCNC(=N)N)NC(=O)[C@H](CCC(N)=O)NC(=O)[C@H](CO)NC(=O)[C@H](CCC(N)=O)NC(=O)[C@@H](NC(=O)[C@H](CCCNC(=N)N)NC(=O)[C@H](C)NC(=O)[C@H](CC(C)C)NC(=O)[C@H](CCC(=O)O)NC(=O)[C@H](CC(C)C)NC(=O)[C@H](CC(C)C)NC(=O)[C@@H](NC(=O)[C@H](CCCNC(=N)N)NC(=O)[C@H](CC(C)C)NC(=O)[C@H](CC(C)C)NC(=O)[C@H](Cc1c[nH]cn1)NC(=O)[C@H](N)Cc1ccccc1)[C@@H](C)O)[C@@H](C)O)C(=O)N[C@H](C(=O)N[C@@H](Cc1ccccc1)C(=O)N[C@@H](CC(=O)O)C(=O)N[C@@H](CO)C(=O)N[C@H](C(N)=O)C(C)C)[C@@H](C)CC) [[D-Phe^11]-Ucn(11-40)]”, the “inhibition … (confidence limits)” value in experiment [1] is on record as 0.551 (0.333-0.857). For the same molecule, the “vasoconstrictive activity causing elevation of mean arterial blood pressure” value in experiment [2] is on record as “significant mammalian vasoconstrictive activity”.

On to “H-D-Pro-D-Phe-His-Leu-Leu-Arg-Thr-Leu-Leu-Glu-Leu-Ala-Arg-Thr-Gln-Ser-Gln-Arg-Glu-Glu-Ala-D-Glu-Lys-Asn-Arg-Ile-Ile-Phe-Asp-Ser-Val-NH2 (H-[dP][dF]HLLRTLLELARTQSQREEA[dE]KNRIIFDSV-NH2; lactam 20-23; SMILES CC[C@H](C)[C@H](NC(=O)[C@H](CCCNC(=N)N)NC(=O)[C@H](CC(N)=O)NC(=O)[C@@H]1CCCCNC(=O)CC[C@H](NC(=O)[C@H](CCC(=O)O)NC(=O)[C@H](CCCNC(=N)N)NC(=O)[C@H](CCC(N)=O)NC(=O)[C@H](CO)NC(=O)[C@H](CCC(N)=O)NC(=O)[C@@H](NC(=O)[C@H](CCCNC(=N)N)NC(=O)[C@H](C)NC(=O)[C@H](CC(C)C)NC(=O)[C@H](CCC(=O)O)NC(=O)[C@H](CC(C)C)NC(=O)[C@H](CC(C)C)NC(=O)[C@@H](NC(=O)[C@H](CCCNC(=N)N)NC(=O)[C@H](CC(C)C)NC(=O)[C@H](CC(C)C)NC(=O)[C@H](Cc2c[nH]cn2)NC(=O)[C@@H](Cc2ccccc2)NC(=O)[C@H]2CCCN2)[C@@H](C)O)[C@@H](C)O)C(=O)N[C@@H](C)C(=O)N[C@H](CCC(=O)O)C(=O)N1)C(=O)N[C@H](C(=O)N[C@@H](Cc1ccccc1)C(=O)N[C@@H](CC(=O)O)C(=O)N[C@@H](CO)C(=O)N[C@H](C(N)=O)C(C)C)[C@@H](C)CC)”, for which, in experiment [1], the “inhibition … (confidence limits)” value is 4.99 (2.26-11.55). For the same molecule, the “vasoconstrictive activity causing elevation of mean arterial blood pressure” value in experiment [2] was “significant mammalian vasoconstrictive activity”.

With “H-D-Phe-His-Leu-Leu-Arg-Thr-Leu-Leu-Glu-Leu-Ala-Arg-Thr-Gln-Ser-Gln-Arg-Glu-Glu-Ala-Glu-Lys-Asn-Arg-Ile-Ile-Phe-Asp-Ser-Val-NH2 (H-[dF]HLLRTLLELARTQSQREEAEKNRIIFDSV-NH2; lactam 19-22 (inferred))”, the “inhibition … (confidence limits)” value in experiment [1] is reported as 10.34 (4.27-25.58). The “vasoconstrictive activity causing elevation of mean arterial blood pressure” value in experiment [2] is “significant mammalian vasoconstrictive activity”.

Turning to “H-Pro-D-Phe-His-Leu-Leu-Arg-Thr-Leu-Leu-Glu-Leu-Ala-Arg-Thr-Gln-Ser-Gln-Arg-Glu-Glu-Ala-D-Glu-Lys-Asn-Arg-Ile-Ile-Phe-Asp-Ser-Val-NH2 (H-P[dF]HLLRTLLELARTQSQREEA[dE]KNRIIFDSV-NH2; lactam 20-23; SMILES CC[C@H](C)[C@H](NC(=O)[C@H](CCCNC(=N)N)NC(=O)[C@H](CC(N)=O)NC(=O)[C@@H]1CCCCNC(=O)CC[C@H](NC(=O)[C@H](CCC(=O)O)NC(=O)[C@H](CCCNC(=N)N)NC(=O)[C@H](CCC(N)=O)NC(=O)[C@H](CO)NC(=O)[C@H](CCC(N)=O)NC(=O)[C@@H](NC(=O)[C@H](CCCNC(=N)N)NC(=O)[C@H](C)NC(=O)[C@H](CC(C)C)NC(=O)[C@H](CCC(=O)O)NC(=O)[C@H](CC(C)C)NC(=O)[C@H](CC(C)C)NC(=O)[C@@H](NC(=O)[C@H](CCCNC(=N)N)NC(=O)[C@H](CC(C)C)NC(=O)[C@H](CC(C)C)NC(=O)[C@H](Cc2c[nH]cn2)NC(=O)[C@@H](Cc2ccccc2)NC(=O)[C@@H]2CCCN2)[C@@H](C)O)[C@@H](C)O)C(=O)N[C@@H](C)C(=O)N[C@H](CCC(=O)O)C(=O)N1)C(=O)N[C@H](C(=O)N[C@@H](Cc1ccccc1)C(=O)N[C@@H](CC(=O)O)C(=O)N[C@@H](CO)C(=O)N[C@H](C(N)=O)C(C)C)[C@@H](C)CC)”, in experiment [1], the “inhibition … (confidence limits)” value is recorded as 2.74 (1.02-8.02). In addition, in experiment [2], the “vasoconstrictive activity causing elevation of mean arterial blood pressure” value is on record as “significant mammalian vasoconstrictive activity”.

B1: Human Ucn(1-40) (peptide)
peptide: DNPSLSIDLTFHLLRTLLELARTQSQRERAEQNRIIFDSV-NH2
Consider B1, for which the ACTH secretion, anterior pituitary cell cultures, potency relative to r/hCRF in experiment [3] was found to be 3.1 times r/hCRF.
